Consider nine compounds from patent US12059425B2, “Heterocyclic compounds and uses thereof” (Kumquat Biosciences Inc., priority 2022, dated 2024).

One experiment concerns the target T1, K-Ras G12D (Homo sapiens, UniProt P01116, G12D).
T1 construct: made in house; host or cells: E. coli, e.g. BL21 (DE3)
Description: PPI-HTRF assay, K-Ras G12D / SOS1 interaction. To be noted: HTRF, K-Ras G12D; read-out: PPI-HTRF-5 nM (K-Ras G12D IC50). It counts as biochemical. A digest of the protocol:
(§1)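 Compounds were tested in duplicate (10 μM to 0.01 μM) for disruption of Ras–SOS1 binding, measured as FRET between anti-GST-Eu on GST-K-Ras and anti-6His-XL665 on His-hSOS1. The buffer was HEPES pH 7.4 with NaCl, DTT, BSA and Igepal. Emission ratios (665/620 nm, excitation 337 nm) read after ≥10 min gave IC50 values.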

Another experiment concerns the target T2, K-Ras G12S (Homo sapiens, UniProt P01116, G12S).
T2 construct: made in house; host or cells: E. coli, e.g. BL21 (DE3)
Put plainly: PPI-HTRF assay, K-Ras G12S / SOS1 interaction. The note with it: read-out: PPI-HTRF-5 nM (K-Ras G12S IC50). Type of experiment: biochemical. A digest of the protocol:
as §1
(Time-resolved FRET reads energy transfer from a long-lived donor to a nearby acceptor.)

A further experiment deals with T3, K-Ras G12V (Homo sapiens, UniProt P01116, G12V).
T3 construct: made in house; host or cells: E. coli, e.g. BL21 (DE3)
T3 sequence (P01116 1-188 isoform P01116-2 G12V): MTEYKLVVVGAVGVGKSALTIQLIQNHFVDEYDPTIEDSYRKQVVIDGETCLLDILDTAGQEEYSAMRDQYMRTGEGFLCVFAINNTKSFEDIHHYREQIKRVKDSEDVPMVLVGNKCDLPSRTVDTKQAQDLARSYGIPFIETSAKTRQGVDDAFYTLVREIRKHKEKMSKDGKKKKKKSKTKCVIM
Description: PPI-HTRF assay, K-Ras G12V / SOS1 interaction. It counts as biochemical. The note with it: HTRF, K-Ras G12V; read-out: PPI-HTRF-5 nM (K-Ras G12V IC50). A digest of the protocol:
as §1

The target in the next experiment is T4, wildtype K-Ras (Homo sapiens, UniProt P01116).
T4 construct: made in house; host or cells: E. coli, e.g. BL21 (DE3)
T4 sequence (P01116 1-188 isoform P01116-2): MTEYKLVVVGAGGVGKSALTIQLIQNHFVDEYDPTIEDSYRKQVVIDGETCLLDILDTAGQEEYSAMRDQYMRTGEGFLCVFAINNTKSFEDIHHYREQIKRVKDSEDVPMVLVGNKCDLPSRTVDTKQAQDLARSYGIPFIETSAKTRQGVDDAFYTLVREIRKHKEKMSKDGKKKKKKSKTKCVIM
Put plainly: PPI-HTRF assay, wildtype K-Ras / SOS1 interaction. It counts as biochemical. The note with it: HTRF, K-Ras wt; read-out: PPI-HTRF-5 nM (K-Ras wt IC50). A digest of the protocol:
as §1

In a further experiment the test system is GP2D cells. Description: Ras cellular assay, cell proliferation GP2D. It counts as cell-based. A digest of the protocol: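 Growth inhibition read by CellTiter-Glo luminescence roughly 5 days after compound addition, which followed overnight plating of G12D-mutant GP2D cells (e.g., 800 per well). Compounds were tested as a serial dilution (e.g., 9 points, 3-fold), with IC50 fitted by four-parameter model.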

Another experiment deals with A549 cells. Description: Ras cellular assay, cell proliferation A549. To be noted: Homo sapiens. Type of experiment: cell-based. The procedure:
(§2) For example, this assay can be also used to assess selective growth inhibition of a mutant Ras protein relative to a wildtype, or relative to a different mutant Ras protein.
A549 (ATCC CRL-185) and LS123 (ATCC CRL-255) cell lines comprise a G12S mutation and can be used to assess Ras cellular signaling in vitro, e.g., in response to treatment with a compound described herein. A549 culture medium is prepared with RPMI-1640 and 10% heat-inactivated FBS. LS123 culture medium is prepared with RPMI-1640 and 10% heat-inactivated FBS. A CellTiter-Glo (CTG) luminescent based assay (Promega) is used to assess growth of the cells, as a measurement of the ability of the compounds herein to inhibit Ras signaling in the cells. The cells (e.g., 800 per well) are seeded in their respective culture medium in standard tissue culture-treated 384-well format plates (Falcon #08-772-116) or ultra-low attachment surface 384-well format plates (S-Bio #MS-9384WZ). The day after plating, cells are treated with a dilution series (e.g., a 10 point, 3-fold dilution series) of the compounds herein (e.g., approximately 40 μL final volume per well). Cell viability can be monitored (e.g., approximately 6 days later) according to the manufacturer's recommended instructions, where CellTiter-Glo reagent is added (e.g., approximately 10 μL), vigorously mixed, covered, and placed on a plate shaker (e.g., approximately for 20 min) to ensure sufficient cell lysis prior to assessment of luminescent signal. The IC50 values are determined using the four parameter fit. The resulting IC50 value is a measurement of the ability of the test compound to reduce cell growth of Ras-driven cells (e.g., tumor cell lines) in vitro and/or in vivo.

The test system of the next experiment is SW620 cells. Put plainly: Ras cellular assay, cell proliferation SW620. It counts as cell-based. The note with it: Homo sapiens, SW-620.
Text: as §2

SMILES strings stand for the structures.

T2 sequence (P01116 1-188 isoform P01116-2 G12S): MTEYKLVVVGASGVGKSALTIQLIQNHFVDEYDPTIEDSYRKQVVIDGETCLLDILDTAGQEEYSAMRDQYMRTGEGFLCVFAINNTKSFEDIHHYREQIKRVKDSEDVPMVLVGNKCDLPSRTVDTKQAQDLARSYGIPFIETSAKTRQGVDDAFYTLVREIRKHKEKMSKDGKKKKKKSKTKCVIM
T1 sequence (P01116 1-188 isoform P01116-2 G12D): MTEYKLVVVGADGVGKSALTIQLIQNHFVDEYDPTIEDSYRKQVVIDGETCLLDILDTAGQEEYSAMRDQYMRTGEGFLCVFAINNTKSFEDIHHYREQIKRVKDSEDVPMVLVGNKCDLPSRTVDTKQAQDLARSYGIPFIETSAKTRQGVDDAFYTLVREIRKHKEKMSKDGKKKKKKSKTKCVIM

For `N#CCC1CN2c3nc(OC[C@@]45CCCN4C[C@H](F)C5)nc4c(F)c(-c5ccc(F)c6sc(N)c(C#N)c56)c(Cl)c(c34)OCCC12` (stereo partly drawn) [compound 114, 2-amino-4-(9-chloro-1-(cyanomethyl)-7-fluoro-5-(((2R,7aS)-2-fluorotetrahydro-1H-pyrrolizin-7a(5H)-yl)methoxy)-1,11,12,12a-tetrahydro-2H-azeto[1′,2′:5,6][1,5]oxazocino[4,3,2-de]quinazolin-8-yl)-7-fluorobenzo[b]thiophene-3-carbonitrile], the concentration for half-maximal inhibition (IC50) at K-Ras G12D, at K-Ras G12S, on K-Ras G12V, at wildtype K-Ras, in the experiment with GP2D cells and with A549 cells was less than 5 µM throughout. In addition, the IC50 with SW620 cells was less than 5 µM.
`CN1c2nc(OC[C@@]34CCCN3C[C@H](F)C4)nc3c(F)c(-c4ccc(F)c5sc(N)c(C#N)c45)c(Cl)c(c23)OCC2CN(C(=O)[C@@H]3N[C@H]3C3CC3)CC21` (stereo partly drawn) [compound 146, 2-amino-4-(6-chloro-10-((2R,3S)-3-cyclopropylaziridine-2-carbonyl)-4-fluoro-2-(((2R,7aS)-2-fluorotetrahydro-1H-pyrrolizin-7a(5H)-yl)methoxy)-12-methyl-8a,9,10,11,11a,12-hexahydro-8H-pyrrolo[3′,4′:6,7][1,5]oxazocino[4,3,2-de]quinazolin-5-yl)-7-fluorobenzo[b]thiophene-3-carbonitrile]: the IC50 at K-Ras G12D was less than 5 µM; on K-Ras G12S, less than 5 µM; on K-Ras G12V it was less than 5 µM; at wildtype K-Ras, less than 5 µM; in the experiment with GP2D cells, less than 5 µM; with A549 cells, more than 5 µM. This compound also came in with a half-inhibitory concentration (IC50) with SW620 cells of less than 5 µM.
Turning to `N#Cc1c(N)sc2c(F)ccc(-c3c(Cl)c4c5c(nc(OC[C@@]67CCCN6C[C@H](F)C7)nc5c3F)N3C(CCC3COC(F)F)CO4)c12` (stereo partly drawn) [compound 161, 2-amino-4-(6-chloro-11-((difluoromethoxy)methyl)-4-fluoro-2-(((2R,7aS)-2-fluorotetrahydro-1H-pyrrolizin-7a(5H)-yl)methoxy)-8a,9,10,11-tetrahydro-8H-pyrrolo[2′,1′:3,4][1,4]oxazepino[5,6,7-de]quinazolin-5-yl)-7-fluorobenzo[b]thiophene-3-carbonitrile], the half-maximal inhibitory concentration (IC50) on K-Ras G12D, at K-Ras G12S, on K-Ras G12V, on wildtype K-Ras, in the experiment with GP2D cells and in the experiment with A549 cells was less than 5 µM each time. The compound further returned an IC50 with SW620 cells of less than 5 µM.
As to `N#Cc1c(N)sc2c(F)ccc(-c3c(Cl)c4c5c(nc(OC[C@@]67CCCN6C[C@H](F)C7)nc5c3F)N(CC3CC3)C3COCC3CO4)c12` (stereo partly drawn) [compound 101, 2-amino-4-(6-chloro-12-(cyclopropylmethyl)-4-fluoro-2-(((2R,7aS)-2-fluorotetrahydro-1H-pyrrolizin-7a(5H)-yl)methoxy)-8a,9,11a,12-tetrahydro-8H,11H-furo[3′,4′:6,7][1,5]oxazocino[4,3,2-de]quinazolin-5-yl)-7-fluorobenzo[b]thiophene-3-carbonitrile], the half-maximal inhibitory concentration (IC50) at K-Ras G12D, at K-Ras G12S, on K-Ras G12V, on wildtype K-Ras, in the experiment on GP2D cells and in the experiment on A549 cells was less than 5 µM throughout. Moreover, the IC50 in the experiment on SW620 cells was less than 5 µM.
`CN1c2nc(OC[C@@]34CCCN3C[C@H](F)C4)nc3c(F)c(-c4ccc(F)c5sc(N)c(C#N)c45)c(Cl)c(c23)OCC2CCCC21` (stereo partly drawn) [compound 110, 2-amino-4-(6-chloro-4-fluoro-2-(((2R,7aS)-2-fluorotetrahydro-1H-pyrrolizin-7a(5H)-yl)methoxy)-12-methyl-8a,9,10,11,11a,12-hexahydro-8H-cyclopenta[6,7][1,5]oxazocino[4,3,2-de]quinazolin-5-yl)-7-fluorobenzo[b]thiophene-3-carbonitrile]: the IC50 on K-Ras G12S is less than 5 µM; on K-Ras G12V it was less than 5 µM; at wildtype K-Ras, less than 5 µM; in the experiment with GP2D cells, more than 5 µM; with A549 cells, more than 5 µM; with SW620 cells it was less than 5 µM.
As for `N#Cc1c(N)sc2c(F)ccc(-c3c(Cl)c4c5c(nc(OC[C@@]67CCCN6C[C@H](F)C7)nc5c3F)N3CCN(C(=O)C(F)F)CCC3CO4)c12` (stereo partly drawn) [compound 149, 2-amino-4-(6-chloro-11-(2,2-difluoroacetyl)-4-fluoro-2-(((2R,7aS)-2-fluorotetrahydro-1H-pyrrolizin-7a(5H)-yl)methoxy)-8a,9,10,11,12,13-hexahydro-8H-[1,4]diazepino[7′,1′:3,4][1,4]oxazepino [5,6,7-de]quinazolin-5-yl)-7-fluorobenzo[b]thiophene-3-carbonitrile], the half-maximal inhibitory concentration (IC50) on K-Ras G12D, on K-Ras G12S, at K-Ras G12V, on wildtype K-Ras, with GP2D cells and in the experiment on A549 cells was less than 5 µM throughout. In the experiment with SW620 cells, this compound gave a half-inhibitory concentration (IC50) of less than 5 µM.
Turning to `N#Cc1c(N)sc2c(F)ccc(-c3c(Cl)c4c5c(nc(OC[C@@]67CCCN6C[C@H](F)C7)nc5c3F)N3CCCC[C@@H]3CCO4)c12` [compound 196, 2-amino-4-((6aR)-3-chloro-1-fluoro-13-(((2R,7aS)-2-fluorotetrahydro-1H-pyrrolizin-7a(5H)-yl)methoxy)-6,6a,7,8,9,10-hexahydro-5H-pyrido[11,2′:5,6][1,5]oxazocino[4,3,2-de]quinazolin-2-yl)-7-fluorobenzo[b]thiophene-3-carbonitrile], the half-inhibitory concentration (IC50) on K-Ras G12D, at K-Ras G12S, on K-Ras G12V, at wildtype K-Ras, in the experiment on GP2D cells and in the experiment on A549 cells was less than 5 µM in each case. The IC50 with SW620 cells was less than 5 µM.
Regarding `N#Cc1c(N)sc2c(F)ccc(-c3c(Cl)c4c5c(nc(OC[C@@]67CCCN6C[C@H](F)C7)nc5c3F)N3CCC[C@@H]3CCO4)c12` [compound 143, 2-amino-4-((13aR)-10-chloro-8-fluoro-6-(((2R,7aS)-2-fluorotetrahydro-1H-pyrrolizin-7a(5H)-yl)methoxy)-1,2,3,12,13,13a-hexahydropyrrolo[1′,2′:5,6][1,5]oxazocino [4,3,2-de]quinazolin-9-yl)-7-fluorobenzo[b]thiophene-3-carbonitrile], the IC50 at K-Ras G12D, at K-Ras G12S, on K-Ras G12V, on wildtype K-Ras, in the experiment with A549 cells and in the experiment on SW620 cells was less than 5 µM throughout.
With `N#CCC1CCN2c3nc(OC[C@@]45CCCN4C[C@H](F)C5)nc4c(F)c(-c5ccc(F)c6sc(N)c(C#N)c56)c(Cl)c(c34)OCC2C1` (single isomer, unassigned) [compound 156], the half-maximal inhibitory concentration (IC50) at K-Ras G12D, at K-Ras G12S, at K-Ras G12V, at wildtype K-Ras, in the experiment with A549 cells and with SW620 cells was less than 5 µM each time.

The term IC50 denotes the concentration needed to halve the response being measured.
